Assay [1] deals with T1, phosphorylated VEGF-R2Δ50 (Homo sapiens, UniProt P35968, DEL940-989/E990V).
T1 construct: VEGF-R2Δ50 contains residues 806-939 and 990-1171; made in house; host or cells: baculovirus/insect cells
The experiment in a line: VEGF-R2 ELISA assay. Type of assay: biochemical. The settings on record: for Ki: * determined with ELISA assay, read-out: FLVK-P Ki; for FLVK-P % inhibition @ 300*: at 300 (head μM). An excerpt:
VEGF-R2 Construct for Assay: This construct determines the ability of a test compound to inhibit tyrosine kinase activity. A construct (VEGF-R2Δ50) of the cytosolic domain of human vascular endothelial growth factor receptor 2 (VEGF-R2) lacking the 50 central residues of the 68 residues of the kinase insert domain was expressed in a baculovirus/insect cell system. Of the 1356 residues of full-length VEGF-R2, VEGF-R2Δ50 contains residues 806-939 and 990-1171, and also one point mutation (E990V) within the kinase insert domain relative to wild-type VEGF-R2. Autophosphorylation of the purified construct was performed by incubation of the enzyme at a concentration of 4 μM in the presence of 3 mM ATP and 40 mM MgCl2 in 100 mM Hepes, pH 7.5, containing 5% glycerol and 5 mM DTT, at 4° C. for 2 h. […] See Parast et al., Biochemistry, 37, 16788-16801 (1998).
Formation of phosphogastrin was monitored using biotinylated gastrin peptide (1-17) as substrate. Biotinylated phosphogastrin was immobilized using streptavidin coated 96-well microtiter plates followed by detection using anti-phosphotyrosine-antibody conjugated to horseradish peroxidase. The activity of horseradish peroxidase was monitored using 2,2′-azino-di-[3-ethylbenzathiazoline sulfonate(6)]diammonium salt (ABTS). Typical assay solutions contained: 2 μM biotinylated gastrin peptide; 5 mM DTT; 20 μM ATP; 26 mM MgCl2; and 2 mM MnCl2 in 200 mM Hepes, pH 7.5. The assay was initiated with 0.8 nM of phosphorylated VEGF-R2Δ50. Horseradish peroxidase activity was assayed using ABTS, 10 mM. The horseradish peroxidase reaction was quenched by addition of acid (H2SO4), followed by absorbance reading at 405 nm. Ki values were determined by measuring enzyme activity in the presence of varying concentrations of test compounds. The data were analyzed using Enzyme Kinetic and Kaleidagraph software.
(In general: An ELISA detects its analyte on a solid surface through an enzyme-linked reagent.)

Assay [2] deals with lung cancer cells (line MV522). As to the kind of experiment: Cancer cell proliferation (MV522) assay. Type of assay: cell-based. The note with it: MV522, Table 1.
Assay [3] has as its system human umbilical vein endothelial cells (HUVEC). The experiment in a line: HUVEC proliferation assay. Type of assay: cell-based. The settings on record: Homo sapiens, HUVEC, Table 1. In short, it runs like this:
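Readout was MTT dye reduction (A595) after 72 h of stimulation with VEGF at 6 ng/ml final. Compound, in 0.1% DMSO final, was added 1 h before VEGF to HUVEC starved 24 h in 1% FBS. % inhibition was scaled between VEGF-alone and unstimulated wells; IC50 was fitted from triplicate dose curves.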

Another assay has as its target CDK2/Cyclin A complex (Homo sapiens, UniProt P24941). The experiment in a line: CDK2/Cyclin A assay. The settings on record: Table 2. Type of assay: biochemical. In short, it runs like this:
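Radiometric assay: 150 nM CDK2/cyclin A (insect-cell CDK2, truncated cyclin A) phosphorylates His-tagged Rb fragment (residues 386-928) with 25 μM ATP plus [32P]ATP, pH 7.4 HEPES, 2% DMSO, 30 °C for 20 min. Filter-captured product counted by phosphorimager; apparent Ki from competitive or tight-binding inhibition fits.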

The target of another assay is T2, CDK4/Cyclin D3 complex (Homo sapiens, UniProt P11802).
T2 construct: made in house; host or cells: insect cells co-infected with baculovirus vectors
T2 sequence (P11802 whole entry): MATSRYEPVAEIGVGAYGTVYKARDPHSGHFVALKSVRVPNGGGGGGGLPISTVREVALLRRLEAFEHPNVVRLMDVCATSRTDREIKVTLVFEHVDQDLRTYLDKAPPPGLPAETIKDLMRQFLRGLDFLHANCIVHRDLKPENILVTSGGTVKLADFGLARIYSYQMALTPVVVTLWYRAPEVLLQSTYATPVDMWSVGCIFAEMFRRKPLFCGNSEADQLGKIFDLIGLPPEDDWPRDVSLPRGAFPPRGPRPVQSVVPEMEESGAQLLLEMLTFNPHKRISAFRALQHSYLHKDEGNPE
T2 sequence (P30281 whole entry partner): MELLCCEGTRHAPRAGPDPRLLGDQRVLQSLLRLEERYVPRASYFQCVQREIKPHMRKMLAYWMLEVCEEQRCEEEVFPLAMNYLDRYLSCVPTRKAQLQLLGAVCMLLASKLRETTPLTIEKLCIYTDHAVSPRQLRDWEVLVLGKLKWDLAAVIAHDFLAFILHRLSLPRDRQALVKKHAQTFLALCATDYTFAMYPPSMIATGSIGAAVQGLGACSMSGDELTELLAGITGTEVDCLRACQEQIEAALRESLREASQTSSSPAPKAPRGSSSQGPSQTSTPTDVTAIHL
As to the kind of experiment: CDK4/Cyclin D assay. Format: biochemical. The settings on record: Table 2; for inhibition at 100 µM: at 100 (printed 100 or 100 μM). In short, it runs like this: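 Insect-cell-expressed CDK4/cyclin D3 (50 nM) phosphorylating His-tagged Rb fragment (residues 386-928) with 25 μM [^32P]ATP in HEPES pH 7.4, MgCl2, 2% DMSO; 20 min at 30 °C, EDTA stop. Filter-captured 32P by phosphorimager; apparent Ki from competitive or tight-binding inhibition fits.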

The target of assay [4] is T3, unphosphorylated VEGF-R2Δ50 (FLVK) (Homo sapiens, UniProt P35968, DEL940-989/E990V).
T3 construct: VEGF-R2Δ50 contains residues 806-939 and 990-1171; made in house; host or cells: baculovirus/insect cells
T3 sequence (P35968 with tags, fused parts or gaps DEL940-989/E990V limits assumed): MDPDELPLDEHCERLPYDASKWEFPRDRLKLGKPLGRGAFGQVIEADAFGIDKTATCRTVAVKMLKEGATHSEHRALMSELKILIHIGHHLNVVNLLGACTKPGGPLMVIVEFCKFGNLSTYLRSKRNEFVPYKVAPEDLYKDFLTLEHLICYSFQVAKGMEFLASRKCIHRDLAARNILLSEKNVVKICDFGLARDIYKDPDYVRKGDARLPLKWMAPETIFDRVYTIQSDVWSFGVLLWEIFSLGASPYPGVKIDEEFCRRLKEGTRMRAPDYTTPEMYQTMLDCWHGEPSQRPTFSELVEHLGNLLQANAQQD
As to the kind of experiment: VEGF-R2 coupled spectrophotometric assay, unphosphorylated enzyme (FLVK). Format: biochemical. The note with it: Table 1. In a few lines:
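Unphosphorylated VEGF-R2Δ50 (5 to 40 nM) with 20 mM poly(E4Y1), 3 mM ATP, 60 mM MgCl2, 2 mM MnCl2 in 200 mM Hepes pH 7.5. ADP production coupled via PK/LDH to NADH oxidation, read at 340 nm. Ki from activity at varying compound concentrations.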

Where two headings read alike, the source gives them in different places.

T1 sequence (P35968 with tags, fused parts or gaps DEL940-989/E990V limits assumed): as above

As for `COc1cc(Nc2nc(N)c(-c3nc(-c4cccc(NC(=O)Oc5ccccc5)c4)cs3)s2)cc(OC)c1OC` [D(4), {3-[4′-Amino-2′-(3,4,5-trimethoxy-phenylamino)-[2,5′]bithiazolyl-4-yl]-phenyl}-carbamic acid phenyl ester], the Ki (in general, the equilibrium dissociation constant of an inhibitor or competing ligand from its target) in assay [1] (Table 1) was found to be 7.6 nM. The results for the IC50 in assay [2] and in assay [3] were greater than 10000 nM and 240 nM, respectively.
As to `CN(C)c1ccc(Nc2nc(N)c(-c3nc(O)c(-c4ccccc4O)s3)s2)cc1` [H(3), 4′-Amino-2′-(4-dimethylamino-phenylamino)-5-(2-hydroxy-phenyl)-[2,5′]bithiazoly-4-ol], the Ki on CDK2/Cyclin A complex was determined as 8800 nM; in assay [1] (Table 2) it was 6100 nM; at CDK4/Cyclin D3 complex, 1700 nM.
On to `COc1cc(Nc2nc(N)c(C3=NC(CC(C)C)CO3)s2)cc(OC)c1OC` (stereo not drawn) [I(3), S-5-(4-Isobutyl-4,5-dihydro-oxazol-2-yl)-N^2-(3,4,5-trimethoxyl-phenyl)-thiazole-2,4-diamine], for which the “FLVK-P % inhibition @ 300*” value in assay [1] (Table 2, ELISA assay) was determined as 40% @. Moreover, on CDK4/Cyclin D3 complex, the inhibition (usually the drop in the measured response relative to a control, in per cent) at 100 µM is less than 0%.
With `Nc1nc(Nc2ccc(S(N)(=O)=O)cc2)sc1C1=NC(c2ccccc2)CO1` (stereo not drawn) [I(5), S-4-[4-Amino-5-(4-phenyl-4,5-dihydro-oxazol-2-yl)-thiazol-2-ylamino]-benzenesulfonamide], the Ki in assay [1] (Table 2) was 770 nM. Moreover, the inhibition at 100 µM on CDK4/Cyclin D3 complex turned out to be 47%.
On the same counts, the results for `COc1cc(Nc2nc(N)c(-c3nn[nH]n3)s2)cc(OC)c1OC` [J(1), 5-(2H-Tetrazol-5-yl-)-N-(3,4,5-trimethoxyl)-thiazole-2,4-diamine] are 64000 nM and less than 0%.
With `COc1ccc(Nc2nc(N)c(-c3ccccn3)s2)cc1OC` [G(4), N^2-(3,4-Dimethoxy-phenyl)-5-pyridin-2-yl-thiazole-2,4-diamine], in assay [1] (Table 2, ELISA assay), the “FLVK-P % inhibition @ 300*” value is recorded as 42% @. On CDK4/Cyclin D3 complex, the Ki stood at 11400 nM.
Turning to `Nc1nc(Nc2ccc(S(N)(=O)=O)cc2)sc1-c1nc(O)cs1` [H(1), 4-(4′-Amino-4-hydroxy-[2,5′]bithiazolyl-2′-ylamino)-benzenesulfonamide], the Ki on CDK2/Cyclin A complex stood at 650 nM; in assay [1] (Table 2), 3600 nM; at CDK4/Cyclin D3 complex, 3800 nM.
Regarding `COc1cc(Nc2nc(N)c(-c3noc(-c4ccsc4)n3)s2)cc(OC)c1OC` [G(7), 5-(5-Thiophen-3-yl-[1,2,4]oxadiazol-3-yl)-N^2-(3,4,5-trimethoxy-phenyl)-thiazole-2,4-diamine], at CDK2/Cyclin A complex (at 10 (head μM)), the “CDK2 % inhibition @ 10” value is 21% @. Further, in assay [1] (Table 2), the Ki was determined as 1600 nM.
Regarding `CN(C)c1ccc(Nc2nc(N)c(-c3nn[nH]n3)s2)cc1` [J(2), N-(4-Dimethylamino-phenyl)-5-(2H-tetrazol-5-yl)-thiazole-2,4-diamine], in assay [1] (Table 2), the Ki is 53000 nM. The inhibition at 100 µM on CDK4/Cyclin D3 complex was 29%.
For `COc1cc(Nc2nc(N)c(-c3nc(-c4cccc(NC(=O)c5cc6ccccc6o5)c4)cs3)s2)cc(OC)c1OC` [D(21), Benzofuran-2-carboxylic acid {3-[4′-amino-2′-(3,4,5-trimethoxy-phenylamino)-[2,5′]bithiazolyl-4-yl]-phenyl}-amide], in assay [1] (Table 1), the Ki turned out to be 60 nM. The IC50 (usually the concentration that inhibits the measured activity by half) is greater than 10000 nM in assay [2] and 200 nM in assay [3].
On to `COc1cc(Nc2nc(N)c(-c3nc(-c4cccc(NC(=O)c5ncc(C)s5)c4)no3)s2)cc(OC)c1OC` [D(51)], for which the Ki in assay [4] was determined as 0.62 nM; in assay [1] (Table 1), 32 nM. Besides, the IC50 in assay [2] is greater than 10000 nM; in assay [3] it was 40 nM.
As for `Nc1nc(Nc2ccc3c(c2)OCCO3)sc1-c1ccccn1` [G(3), N^2-(2,3-Dihydro-benzo[1,4]dioxin-6-yl)-5-pyridin-2-yl-thiazole-2,4-diamine], in assay [1] (Table 2, ELISA assay, at 20 (head μM)), the “FLVK-P % inhibition @ 20*” value is listed as 13% @. For the same molecule, the inhibition constant (Ki) at CDK4/Cyclin D3 complex worked out at 6200 nM.
Regarding `Nc1nc(Nc2ccc(S(N)(=O)=O)cc2)sc1-c1nc(-c2ccc(O)cc2)cs1` [A(8), 4-[4′-Amino-4-(4-hydroxy-phenyl)-[2,5′]bithiazolyl-2′-ylamino]-benzenesulfonamide], the figures for the Ki (at CDK2/Cyclin A complex; in assay [1] (Table 2); on CDK4/Cyclin D3 complex) were 800 nM, 58 nM and 420 nM, respectively.
As for `COc1cc(Nc2nc(N)c(-c3ccccn3)s2)cc(OC)c1OC` [G(1), 5-Pyridin-2-yl-N^2-(3,4,5-trimethoxy-phenyl)-thiazole-2,4-diamine], the Ki in assay [1] (Table 2) turned out to be 57000 nM; at CDK4/Cyclin D3 complex, 50000 nM.
As for `COc1cc(Nc2nc(N)c(C3=NC(c4ccccc4Br)CO3)s2)cc(OC)c1OC` (racemic) [I(13), (R/S)-5-[4-(2-Bromo-phenyl)-4,5-dihydro-oxazol-2-yl]-N^2-(3,4,5-trimethoxy-phenyl)-thiazole-2,4-diamine], the Ki in assay [1] (Table 2) came out at 1250 nM.
Turning to `COc1cc(Nc2nc(N)c(C3=NC(c4cccc(Br)c4)CO3)s2)cc(OC)c1OC` (racemic) [I(14), (R/S)-5-[4-(3-Bromo-phenyl)-4,5-dihydro-oxazol-2-yl]-N^2-(3,4,5-trimethoxy-phenyl)-thiazole-2,4-diamine], the Ki in assay [1] (Table 2) worked out at 1170 nM.
Regarding `Nc1nc(Nc2ccccc2)sc1-c1ccccn1` [G(2), N^2-Phenyl-5-pyridin-2-yl-thiazole-2,4-diamine], the “FLVK-P % inhibition @ 100*” value in assay [1] (Table 2, ELISA assay, at 100 (head μM)) was 18% @. Further, the Ki on CDK4/Cyclin D3 complex came to 5700 nM.
For `CNC(=O)Nc1cccc(-c2csc(-c3sc(Nc4cc(OC)c(OC)c(OC)c4)nc3N)n2)c1` [D(7), 1-{3-[4′-Amino-2′-(3,4,5-trimethoxy-phenylamino)-[2,5′]bithiazolyl-4-yl]-phenyl}-3-methyl-urea], in assay [1] (Table 1), the Ki was 120 nM.
Take `COc1cc(Nc2nc(N)c(C3=NCC(C)O3)s2)cc(OC)c1OC` (racemic) [I(19), (R/S)-5-(5-Methyl-4,5-dihydro-oxazol-2-yl)-N^2-(3,4,5-trimethoxy-phenyl)-thiazole-2,4-diamine]: the Ki in assay [1] (Table 2) was 34000 nM.
Turning to `COc1cc(Nc2nc(N)c(C3=N[C@H](C)[C@H](c4ccccc4)O3)s2)cc(OC)c1OC` [I(18), 5-(4(R)-Methyl-5(S)-phenyl-4,5-dihydro-oxazol-2-yl)-N^2-(3,4,5-trimethoxy-phenyl)-thiazole-2,4-diamine], the Ki in assay [1] (Table 2) is 2700 nM.
